The subject of assay [1] is hepatocytes. As to the kind of experiment: Daily IP injections of GC-1 in wild type C57BL/6 mice: hepatocyte proliferation, β-catenin activation, cyclin-D1. It is filed as in vivo. The settings on record: vs DMSO control. As for the experimental part: All studies on mice were performed in strict accordance with Guidelines. Eight-week old male C57BL/6 male mice (Jackson/Charles River) were maintained on a standard laboratory basal diet (Test Diet) (n=4), or fed a T3-supplemented diet (4 mg/Kg of diet, Sigma Chemicals, St. Louis Mo.) (n=4). GC-1 was administered to the eight week-old male C57BL/6 male mice either via GC-1-supplemented diet (5 mg/Kg of diet, Medchem Express) for 8 days (n=4) or via daily intraperitoneal injections (IP) of GC-1 dissolved in DMSO (0.3 mg/kg/dose) for 8 days (n=7). As a control group for injections, DMSO alone was injected daily intraperitoneal (IP) for 8 days (n=5). Mice were sacrificed 24 hours after the last injection.
(§1) To label dividing hepatocytes, BrdU (5-bromodeoxyuridine) dissolved in drinking water (1 mg/ml) was given to all animals throughout the experiment period. The animals were given food and water ad libitum with a 12-hour light/dark daily cycle.
(§2) Four micron liver sections were analyzed by immunohistochemistry for β-Catenin (BD Biosciences, San Jose, Calif.), Cyclin-D1 (Thermo-Scientific, Fremont, Calif.) and PCNA (Santa Cruz Biotechnology, Dallas, Tex.). Briefly, formalin-fixed sections were deparaffinized in graded xylene and alcohol. Endogenous peroxidase was inactivated using 3% hydrogen peroxide (Sigma). For β-Catenin, Cyclin-D1 staining, slides were microwaved in Citrate buffer followed by blocking with Superblock for 10 minutes. Sections were then incubated with secondary anti-mouse (for β-catenin) or anti-rabbit (for Cyclin-D1) horseradish peroxidase-conjugated antibody for 30 minutes.
For PCNA, slides were microwaved in zinc sulfate for 12 minutes, followed by blocking with Superblock for 20 minutes. Sections were incubated with PCNA antibody (Santa Cruz) diluted 1:4,000 in phosphate buffered saline (PBS) for 60 minutes. Slides then incubated with horse anti-mouse secondary antibody (1:700 dilution) for 30 minutes. ABC was applied for 30 minutes. DAB kit was then applied. Slides were then dehydrated, coverslips placed, and allowed to dry.
(§3) Bromodeoxyuridine (BrdU) was stained with mouse antibody (Becton Dickinson) as previously described (Fanti et al. (2014) Hepatology 59, 2309-2320). Briefly, tissue sections were deparaffinized, exposed to 0.3% hydrogen peroxide in deionized water for 10 minutes to block endogenous peroxidase, treated with 2N HCl, incubated with trypsin 0.1% for 20 minutes and then with normal goat serum for 20 minutes at room temperature. Sections were then incubated overnight in cold room with anti-BrdU monoclonal antibody, followed by biotinylated goat anti-mouse IgG. DAB kit was then applied, and sections were counterstained with hematoxylin. A small segment of intestine was included from each mouse as a positive control for the staining. For quantification of BrdU staining, at least 10 high power fields (400× or 600×) fields each from at least three biological replicates were counted as indicated in the figures. Statistical analysis was performed as described below.
Protein extraction from frozen liver tissue and western blot analysis were performed as previously described (Fanti et al., (2014) Hepatology 59, 2309-2320). For protein extraction, a small amount of frozen liver tissue was obtained (over dry ice) and was homogenized using RIPA buffer with protease and phosphatase inhibitor cocktail (Sigma, St. Louis, Mo.). Samples were transferred to a 1.5 ml tube on ice, and spun in cold room centrifuge at 14,000 RPM for 5 minutes. […]

Assay [2] deals with hepatocytes. As to the kind of experiment: GC-1 or T3 in hepatocyte specific β-catenin knockout mice (β-Cat LKO) and littermate controls. Format: in vivo. The settings on record: control mice, GC-1 treated vs basal diet.
For assay [3], the system named is hepatocytes. Description: Partial hepatectomy after pretreatment with T3 or GC-1 supplemented diet. It is filed as in vivo, mice. The method, then: as §1
After 7 days of receiving T3 supplemented diet (n=3) or GC-1 diet (n=3) or standard basal mouse chow (n=3), C57BL/6 male mice underwent partial hepatectomy as described previously (Tan et al. (2006) Gastroenterology 131, 1561-1572). Anesthesia was provided with inhaled Isoflurane. The animals were sacrificed 24 hours post hepatectomy, after Isoflurane anesthesia and cervical dislocation. Serum and liver tissue were harvested for further processing.
as §2, §3

Assay [4] deals with hepatocytes. Description: GC-1 or T3 in hepatocyte specific β-catenin knockout mice (β-Cat LKO) and littermate controls. It is filed as in vivo. The method, then: Eight to 10 week old male hepatocyte specific β-catenin knockout mice (β-cat-LKO) or sex-matched littermate controls obtained from breeding homozygous floxed β-catenin mice and albumin-cre transgenic mice (as described elsewhere (Tan et al., (2006) Gastroenterology 131, 1561-1572)) were given 8 daily IP injections of GC-1 (n=4) or DMSO (n=4) and harvested around 24 hours after the last injection.
as §1, §2, §3
Protein extraction from frozen liver tissue and western blot analysis were performed as previously described (Fanti et al., (2014) Hepatology 59, 2309-2320). For protein extraction, a small amount of frozen liver tissue was obtained (over dry ice) and was homogenized using RIPA buffer with protease and phosphatase inhibitor cocktail (Sigma, St. Louis, Mo.). Samples were transferred to a 1.5 ml tube on ice, and spun in cold room centrifuge at 14,000 RPM for 5 minutes. Pellet was then discarded and sample was aliquoted and stored at −80 C for use. Fifty micrograms of the proteins were resolved by sodium dodecyl sulfate-polyacrylamide gel electrophoresis analysis, and transferred to immobilon-polyvinylidene difluoride membranes.
The primary antibodies used were against β-catenin (BD Biosciences); pSer675-β-catenin, pSer552-β-catenin, Active-β-catenin (Cell-Signaling), Cyclin-D1 (Thermo-Scientific), and β-Actin (Sigma). Dilutions of primary antibody were done according to manufacturer recommendations (1:1000 for all except Cyclin-D1 which was 1:200). Horseradish peroxidase-conjugated secondary antibodies used were goat anti-mouse (1:20,000) and goat anti-rabbit (1:10,000) (Millipore). The proteins were detected by Super-Signal West Pico Chemiluminescense Substrate (Thermo Scientific, Rockford Ill.) and visualized by autoradiography.
Total RNA was extracted by homogenizing frozen liver tissues in Trizol reagent (Invitrogen, Carlsbad, Calif.) from GC-1-injected β-Cat LKO (n=4) and littermate control mice (n=4); and GC-1-injected LRP5-6 LKO (n=3) and littermate control mice (n=3). […]

“Also recorded” adds a separate entry of the source.

`Cc1cc(OCC(=O)O)cc(C)c1Cc1ccc(O)c(C(C)C)c1` [GC-1, Sobetirome]: in the assay on hepatocytes [1] (GC-1 0.3 mg/Kg/dose daily IP in DMSO, 8 days, 0.3 mg/kg), the “PCNA-positive hepatocytes and BrdU incorporation (hepatocyte proliferation)” value is reported as “increased number of PCNA-positive hepatocytes as well as BrdU incorporation; also recorded: increased proliferation”. Further, in the assay with hepatocytes [1] (GC-1 0.3 mg/Kg/dose daily IP), the “P-Ser675-β-catenin level, Western blot of whole liver lysates” value is recorded as “increased”; the cyclin-D1 immunohistochemistry result is “many positive hepatocytes”; the “cyclin-D1 level, Western blot of whole liver lysates” value was “increased”; the “total β-catenin level, Western blot” value was “did not show much difference”. The “active-β-catenin, Western blot” value in the assay with hepatocytes [2] was “notable increase”. In addition, in the assay with hepatocytes [3] (24 hours after hepatectomy), the “nuclear cyclin-D1 immunohistochemistry at 24 hours after hepatectomy” value is “panlobular distribution”. Moreover, in the assay with hepatocytes [3] (diet pretreatment, vs basal diet), the “BrdU positive hepatocyte nuclei at 24 hours after hepatectomy” value was “pronounced increase”. In addition, in the assay on hepatocytes [3] (pre-hepatectomy vs 24 hour-post hepatectomy, same animals, all three mice), the “increase in hepatocyte proliferation over the 24-hour liver regeneration period” value is “around 2 fold”. In addition, the “cyclin-D1 immunohistochemistry in resected lobes at time of hepatectomy” value with hepatocytes [3] (pretreatment livers) is on record as “expansion of cyclin-D1 positive hepatocytes in the midzonal area”. Moreover, the “BrdU-positive hepatocytes in resected lobes at time of hepatectomy” value in the assay with hepatocytes [3] (seven-day pretreatment, vs basal diet) is “increased BrdU-positive hepatocytes”. Moreover, in the assay with hepatocytes [4] (β-Cat LKO after T3 or GC-1 treatment), the “active β-catenin, Western blot” value is “very faint signal”. Besides, the “P-Ser675-β-catenin, Western blot” value in the assay on hepatocytes [4] (β-Cat LKO vs controls treated with GC-1 or T3) is given as “absent”. Besides, the “nuclear cyclin-D1 by immunohistochemistry” value with hepatocytes [4] (β-Cat LKO vs controls, GC-1) is on record as “notable decrease”. Also, the “BrdU incorporation in hepatocytes (hepatocyte proliferation)” value in the assay with hepatocytes [4] (β-Cat LKO vs littermate controls, GC-1 0.3 mg/Kg/dose IP, 8 days) is listed as “decreased hepatocyte proliferation”. Also, in the assay on hepatocytes [4] (β-Cat LKO, GC-1 IP), the “BrdU incorporation in non-parenchymal cell population” value is “notable BrdU incorporation continued to occur”. For the same compound, in the assay on hepatocytes [4] (β-catenin-LKO mice receiving GC-1 vs controls), the “cyclin-D1 mRNA expression (RT-PCR)” value is “significant decrease”.

(Values after patent US10780069B2, “Use of GC-1 in transplant related population” (University of Pittsburgh—Of the Commonwealth System of …, priority 2017, dated 2020).)
